In patent US10485808B2, “Selective progesterone receptor modulators (SPRM) and stabilized estrogen level in patient” (BAYER PHARMA AKTIENGESELLSCHAFT, priority 2017, dated 2019):

Tested on: women diagnosed with uterine fibroids
Assay: Study 15788: hot flush events during treatment
Assay type: in vivo, human
Description: Example 5: Hot Flush Events in Study Subject Treated with Compound 1 (Cp1)
See full study description in Example 4.
Hot flush events were reported and monitored during treatment.

Hot flush events, MILD, number of subjects (Cp1 0.5 mg, N = 60, 12 weeks): 5
Hot flush events, MILD, percent of subjects (Cp1 0.5 mg, N = 60, 12 weeks): 8.3%
Hot flush events, MODERATE, number of subjects (Cp1 0.5 mg, N = 60, 12 weeks): 0
Hot flush events, SEVERE, number of subjects (Cp1 0.5 mg, N = 60, 12 weeks): single
Hot flush events, SEVERE, percent of subjects (Cp1 0.5 mg, N = 60, 12 weeks): 1.7%
Hot flush events, Total, number of subjects (Cp1 0.5 mg, N = 60, 12 weeks): 6
Hot flush events, Total, percent of subjects (Cp1 0.5 mg, N = 60, 12 weeks): 0.0%
Hot flush events, SEVERE, number of subjects (Cp1 0.5 mg, N = 60, 12 weeks, listed as Cp1): 1
Hot flush events, MILD, number of subjects (Cp1 1 mg, N = 61, 12 weeks): 3
Hot flush events, MILD, percent of subjects (Cp1 1 mg, N = 61, 12 weeks): 4.9%
Hot flush events, MODERATE, number of subjects (Cp1 1 mg, N = 61, 12 weeks): 2
Hot flush events, MODERATE, percent of subjects (Cp1 1 mg, N = 61, 12 weeks): 3.3%
Hot flush events, SEVERE, number of subjects (Cp1 1 mg, N = 61, 12 weeks): 0
Hot flush events, Total, number of subjects (Cp1 1 mg, N = 61, 12 weeks): 5
Hot flush events, Total, percent of subjects (Cp1 1 mg, N = 61, 12 weeks): 8.2%
Hot flush events, MILD, number of subjects (Cp1 2 mg, N = 61, 12 weeks): 4
Hot flush events, MILD, percent of subjects (Cp1 2 mg, N = 61, 12 weeks): 6.6%
Hot flush events, MODERATE, number of subjects (Cp1 2 mg, N = 61, 12 weeks): 1
Hot flush events, MODERATE, percent of subjects (Cp1 2 mg, N = 61, 12 weeks): 1.6%
Hot flush events, SEVERE, number of subjects (Cp1 2 mg, N = 61, 12 weeks): 0
Hot flush events, Total, number of subjects (Cp1 2 mg, N = 61, 12 weeks): 5
Hot flush events, Total, percent of subjects (Cp1 2 mg, N = 61, 12 weeks): 8.2%
Hot flush events, MILD, number of subjects (Cp1 4 mg, N = 60, 12 weeks): 5
Hot flush events, MILD, percent of subjects (Cp1 4 mg, N = 60, 12 weeks): 8.3%
Hot flush events, MODERATE, number of subjects (Cp1 4 mg, N = 60, 12 weeks): 3
Hot flush events, MODERATE, percent of subjects (Cp1 4 mg, N = 60, 12 weeks): 5.0%
Hot flush events, SEVERE, number of subjects (Cp1 4 mg, N = 60, 12 weeks): 0
Hot flush events, Total, number of subjects (Cp1 4 mg, N = 60, 12 weeks): 8
Hot flush events, Total, percent of subjects (Cp1 4 mg, N = 60, 12 weeks): 13.3%
Subjects showing mild to moderate hot flushes, overall (all dose groups, 12 weeks): no more than 14%
Compound: C[C@]12C[C@H](c3ccc(S(C)(=O)=O)cc3)C3=C4CCC(=O)C=C4CC[C@H]3[C@@H]1CC[C@@]2(O)C(F)(F)C(F)(F)F [Compound 1, (11β,17β)-17-Hydroxy-11-[4-(methylsulphonyl)phenyl]-17-(pentafluoroethyl)estra-4,9-dien-3-one]
